In this test the test system is Leishmania infantum. In words: Antiparasitic activity against Leishmania infantum MHOM/BR/70/BH46 promastigotes infected in dog DH82 cells at 1000 uM after 48 hrs by ELISA method. The format is functional. Particulars: MHOM/BR/70/BH46, DH82, 48 h. A general note: ELISA stands for enzyme-linked immunosorbent assay.
One may read the inhibition as the share of the control response that was lost under treatment. High values mean a strong effect, low ones a weak effect. For the compound `CC1(C)CC[C@]2(C(=O)OCc3ccccc3)CC[C@]3(C)C(=CC[C@@H]4[C@@]5(C)CC[C@H](O)[C@@](C)(CO)[C@@H]5CC[C@]43C)[C@@H]2C1`, testing at 1000 µM gave an inhibition of 30.2%. To `CC1(C)CC[C@]2(C(=O)OCc3ccccc3[N+](=O)[O-])CC[C@]3(C)C(=CC[C@@H]4[C@@]5(C)CC[C@H](O)[C@@](C)(CO)[C@@H]5CC[C@]43C)[C@@H]2C1` belongs 71.7%. `CC1(C)CC[C@]2(C(=O)OCc3ccccc3Br)CC[C@]3(C)C(=CC[C@@H]4[C@@]5(C)CC[C@H](O)[C@@](C)(CO)[C@@H]5CC[C@]43C)[C@@H]2C1` came in with an inhibition at 1000 µM of 40%.

Compound `CC1(C)CC[C@]2(C(=O)OCc3ccccc3F)CC[C@]3(C)C(=CC[C@@H]4[C@@]5(C)CC[C@H](O)[C@@](C)(CO)[C@@H]5CC[C@]43C)[C@@H]2C1` displayed an inhibition at 1000 µM of 26%. In turn, `CC1(C)CC[C@]2(C(=O)OCc3ccc(F)cc3F)CC[C@]3(C)C(=CC[C@@H]4[C@@]5(C)CC[C@H](O)[C@@](C)(CO)[C@@H]5CC[C@]43C)[C@@H]2C1` yielded an inhibition at 1000 µM of 16%. The value for `CC1(C)CC[C@]2(C(=O)OCc3c(F)cccc3F)CC[C@]3(C)C(=CC[C@@H]4[C@@]5(C)CC[C@H](O)[C@@](C)(CO)[C@@H]5CC[C@]43C)[C@@H]2C1` was 25.2%; that for `CC1(C)CC[C@]2(C(=O)OCc3ccccc3Cl)CC[C@]3(C)C(=CC[C@@H]4[C@@]5(C)CC[C@H](O)[C@@](C)(CO)[C@@H]5CC[C@]43C)[C@@H]2C1` was 15.8%. `Cc1ccccc1COC(=O)[C@]12CCC(C)(C)C[C@H]1C1=CC[C@@H]3[C@@]4(C)CC[C@H](O)[C@@](C)(CO)[C@@H]4CC[C@@]3(C)[C@]1(C)CC2` returned an inhibition at 1000 µM of 39%. As for `CC1(C)CC[C@]2(C(=O)OCc3cccc(Cl)c3)CC[C@]3(C)C(=CC[C@@H]4[C@@]5(C)CC[C@H](O)[C@@](C)(CO)[C@@H]5CC[C@]43C)[C@@H]2C1`, 1000 µM produced 23% inhibition. The value for `C#CCOC(=O)[C@]12CCC(C)(C)C[C@H]1C1=CC[C@@H]3[C@@]4(C)CC[C@H](O)[C@@](C)(CO)[C@@H]4CC[C@@]3(C)[C@]1(C)CC2` was 19%; that for `CC1(C)CC[C@]2(C(=O)OCc3ccc([N+](=O)[O-])cc3)CC[C@]3(C)C(=CC[C@@H]4[C@@]5(C)CC[C@H](O)[C@@](C)(CO)[C@@H]5CC[C@]43C)[C@@H]2C1` was 28%; that for `Cc1ccc(COC(=O)[C@]23CCC(C)(C)C[C@H]2C2=CC[C@@H]4[C@@]5(C)CC[C@H](O)[C@@](C)(CO)[C@@H]5CC[C@@]4(C)[C@]2(C)CC3)cc1` was 44%. Regarding `CC1(C)CC[C@]2(C(=O)OCc3ccc(F)cc3)CC[C@]3(C)C(=CC[C@@H]4[C@@]5(C)CC[C@H](O)[C@@](C)(CO)[C@@H]5CC[C@]43C)[C@@H]2C1`, at 1000 µM the inhibition was 57%.

`CC1(C)CC[C@]2(C(=O)OCc3ccc(Cl)cc3)CC[C@]3(C)C(=CC[C@@H]4[C@@]5(C)CC[C@H](O)[C@@](C)(CO)[C@@H]5CC[C@]43C)[C@@H]2C1` gave an inhibition at 1000 µM of 53%. The value for `CC1(C)CC[C@]2(C(=O)OCc3cccc(Br)c3)CC[C@]3(C)C(=CC[C@@H]4[C@@]5(C)CC[C@H](O)[C@@](C)(CO)[C@@H]5CC[C@]43C)[C@@H]2C1` was 20%; that for `CC1(C)CC[C@]2(C(=O)NCc3ccccc3)CC[C@]3(C)C(=CC[C@@H]4[C@@]5(C)CC[C@H](O)[C@@](C)(CO)[C@@H]5CC[C@]43C)[C@@H]2C1` was 8.2%. In turn, `CC1(C)CC[C@]2(C(=O)NCCN3CCCCC3)CC[C@]3(C)C(=CC[C@@H]4[C@@]5(C)CC[C@H](O)[C@@](C)(CO)[C@@H]5CC[C@]43C)[C@@H]2C1` came in with an inhibition at 1000 µM of 0%.

For the compound `CC1(C)CC[C@]2(C(=O)NCCN3CCCC3)CC[C@]3(C)C(=CC[C@@H]4[C@@]5(C)CC[C@H](O)[C@@](C)(CO)[C@@H]5CC[C@]43C)[C@@H]2C1`, 1000 µM produced 0% inhibition. To `C#CCNC(=O)[C@]12CCC(C)(C)C[C@H]1C1=CC[C@@H]3[C@@]4(C)CC[C@H](O)[C@@](C)(CO)[C@@H]4CC[C@@]3(C)[C@]1(C)CC2` belongs 15%; to `CC1(C)CC[C@]2(C(=O)NCCN3CCOCC3)CC[C@]3(C)C(=CC[C@@H]4[C@@]5(C)CC[C@H](O)[C@@](C)(CO)[C@@H]5CC[C@]43C)[C@@H]2C1`, 7%; to `CC1(C)CC[C@]2(C(=O)OCc3cn(Cc4c(Cl)cccc4Cl)nn3)CC[C@]3(C)C(=CC[C@@H]4[C@@]5(C)CC[C@H](O)[C@@](C)(CO)[C@@H]5CC[C@]43C)[C@@H]2C1`, 44.5%. To `CC1(C)CC[C@]2(C(=O)NCc3cn(Cc4ccccc4F)nn3)CC[C@]3(C)C(=CC[C@@H]4[C@@]5(C)CC[C@H](O)[C@@](C)(CO)[C@@H]5CC[C@]43C)[C@@H]2C1` belongs 31%. To `CC1(C)CC[C@]2(C(=O)NCc3cn(Cc4cccc(Br)c4)nn3)CC[C@]3(C)C(=CC[C@@H]4[C@@]5(C)CC[C@H](O)[C@@](C)(CO)[C@@H]5CC[C@]43C)[C@@H]2C1` belongs 33.3%; to `CC1(C)CC[C@]2(C(=O)OCc3cn(Cc4ccccc4)nn3)CC[C@]3(C)C(=CC[C@@H]4[C@@]5(C)CC[C@H](O)[C@@](C)(CO)[C@@H]5CC[C@]43C)[C@@H]2C1`, 23.5%. Compound `CC1(C)CC[C@]2(C(=O)OCc3cn(Cc4ccccc4F)nn3)CC[C@]3(C)C(=CC[C@@H]4[C@@]5(C)CC[C@H](O)[C@@](C)(CO)[C@@H]5CC[C@]43C)[C@@H]2C1` returned an inhibition at 1000 µM of 48.3%.

Take `CC1(C)CC[C@]2(C(=O)OCc3cn(Cc4ccc(Br)cc4)nn3)CC[C@]3(C)C(=CC[C@@H]4[C@@]5(C)CC[C@H](O)[C@@](C)(CO)[C@@H]5CC[C@]43C)[C@@H]2C1`: the inhibition at 1000 µM amounted to 27.7%. To `CC1(C)CC[C@]2(C(=O)OCc3cn(Cc4ccc([N+](=O)[O-])cc4)nn3)CC[C@]3(C)C(=CC[C@@H]4[C@@]5(C)CC[C@H](O)[C@@](C)(CO)[C@@H]5CC[C@]43C)[C@@H]2C1` belongs 17%; to `CC1(C)CC[C@]2(C(=O)NCc3cn(Cc4cccc([N+](=O)[O-])c4)nn3)CC[C@]3(C)C(=CC[C@@H]4[C@@]5(C)CC[C@H](O)[C@@](C)(CO)[C@@H]5CC[C@]43C)[C@@H]2C1`, 25.4%; to `CC1(C)CC[C@]2(C(=O)NCc3cn(Cc4ccc([N+](=O)[O-])cc4)nn3)CC[C@]3(C)C(=CC[C@@H]4[C@@]5(C)CC[C@H](O)[C@@](C)(CO)[C@@H]5CC[C@]43C)[C@@H]2C1`, 14%. As to `CC1(C)CC[C@]2(C(=O)NCc3cn(Cc4ccccc4Cl)nn3)CC[C@]3(C)C(=CC[C@@H]4[C@@]5(C)CC[C@H](O)[C@@](C)(CO)[C@@H]5CC[C@]43C)[C@@H]2C1`, 1000 µM produced 0% inhibition. To `CC1(C)CC[C@]2(C(=O)NCc3cn(Cc4ccc(F)cc4)nn3)CC[C@]3(C)C(=CC[C@@H]4[C@@]5(C)CC[C@H](O)[C@@](C)(CO)[C@@H]5CC[C@]43C)[C@@H]2C1` belongs 10.2%.

`CC1(C)CC[C@]2(C(=O)OCc3cn(Cc4ccccc4Cl)nn3)CC[C@]3(C)C(=CC[C@@H]4[C@@]5(C)CC[C@H](O)[C@@](C)(CO)[C@@H]5CC[C@]43C)[C@@H]2C1` came in with an inhibition at 1000 µM of 0%.

In turn, `CC1(C)CC[C@]2(C(=O)NCc3cn(Cc4cccc(Cl)c4)nn3)CC[C@]3(C)C(=CC[C@@H]4[C@@]5(C)CC[C@H](O)[C@@](C)(CO)[C@@H]5CC[C@]43C)[C@@H]2C1` registered an inhibition at 1000 µM of 31.1%. The compound `CC1(C)CC[C@]2(C(=O)OCc3cn(Cc4c(F)cccc4F)nn3)CC[C@]3(C)C(=CC[C@@H]4[C@@]5(C)CC[C@H](O)[C@@](C)(CO)[C@@H]5CC[C@]43C)[C@@H]2C1` had an inhibition at 1000 µM of 34%. To `CC1(C)CC[C@]2(C(=O)OCc3cn(Cc4ccccc4Br)nn3)CC[C@]3(C)C(=CC[C@@H]4[C@@]5(C)CC[C@H](O)[C@@](C)(CO)[C@@H]5CC[C@]43C)[C@@H]2C1` belongs 34.6%. `CC1(C)CC[C@]2(C(=O)NCc3cn(Cc4ccccc4)nn3)CC[C@]3(C)C(=CC[C@@H]4[C@@]5(C)CC[C@H](O)[C@@](C)(CO)[C@@H]5CC[C@]43C)[C@@H]2C1`: the inhibition at 1000 µM amounted to 11%. As for `CC1(C)CC[C@]2(C(=O)OCc3cn(Cc4cccc(Cl)c4)nn3)CC[C@]3(C)C(=CC[C@@H]4[C@@]5(C)CC[C@H](O)[C@@](C)(CO)[C@@H]5CC[C@]43C)[C@@H]2C1`, 1000 µM produced 51.3% inhibition.

In the case of `CC1(C)CC[C@]2(C(=O)OCc3cn(Cc4cccc([N+](=O)[O-])c4)nn3)CC[C@]3(C)C(=CC[C@@H]4[C@@]5(C)CC[C@H](O)[C@@](C)(CO)[C@@H]5CC[C@]43C)[C@@H]2C1`, the inhibition at 1000 µM was 26.3%. `CC1(C)CC[C@]2(C(=O)OCc3cn(Cc4ccc(Cl)cc4)nn3)CC[C@]3(C)C(=CC[C@@H]4[C@@]5(C)CC[C@H](O)[C@@](C)(CO)[C@@H]5CC[C@]43C)[C@@H]2C1` came in with an inhibition at 1000 µM of 35%. To `CC1(C)CC[C@]2(C(=O)NCc3cn(Cc4ccccc4Br)nn3)CC[C@]3(C)C(=CC[C@@H]4[C@@]5(C)CC[C@H](O)[C@@](C)(CO)[C@@H]5CC[C@]43C)[C@@H]2C1` belongs 4.2%; to `CC1(C)CC[C@]2(C(=O)OCc3cn(Cc4ccc(F)cc4)nn3)CC[C@]3(C)C(=CC[C@@H]4[C@@]5(C)CC[C@H](O)[C@@](C)(CO)[C@@H]5CC[C@]43C)[C@@H]2C1`, 33.3%. Compound `CC1(C)CC[C@]2(C(=O)NCc3cn(Cc4ccc(Br)cc4)nn3)CC[C@]3(C)C(=CC[C@@H]4[C@@]5(C)CC[C@H](O)[C@@](C)(CO)[C@@H]5CC[C@]43C)[C@@H]2C1` yielded an inhibition at 1000 µM of 27%. To `COC(=O)C(NC(=O)[C@]12CCC(C)(C)C[C@H]1C1=CC[C@@H]3[C@@]4(C)CC[C@H](O)[C@@](C)(CO)[C@@H]4CC[C@@]3(C)[C@]1(C)CC2)c1ccccc1` (some centres undefined) belongs 60%. Take `CC1(C)CC[C@]2(C(=O)NC(Cc3c[nH]c4ccccc34)C(=O)O)CC[C@]3(C)C(=CC[C@@H]4[C@@]5(C)CC[C@H](O)[C@@](C)(CO)[C@@H]5CC[C@]43C)[C@@H]2C1` (some centres undefined): the inhibition at 1000 µM is 50%.
